How the values were obtained:
[1] = tested on: E. coli EIEC CCUG 38092; assay: Chromatogram binding assay, binding specificities of type strains; set-up: species or system Escherichia coli; conditions: prolonged sub-culture, 4 μg per lane
Experimental: Culture Conditions and Labeling—The E. coli strains were cultured on Luria-agar with the addition of 10 μl ^35S-methionine (400 tici; Amersham Pharmacia Biotech, U.K.) at 37° C. for 12 h. The bacteria were harvested by scraping, washed three times with phosphate-buffered saline (PBS), pH 7.3, and thereafter resuspended in PBS (with or without 1% mannose (w/v)) to 1×10^8 CFU/ml. The specific activities of the suspensions were approximately 1 cpm per 100 bacteria.
Thin-Layer Chromatography—Thin-layer chromatography of glycosphingolipids was performed on glass- or aluminum-backed silica gel 60 HPTLC plates (Merck, Darmstadt, Germany), using chloroform/methanol/water 60:35:8 (by volume) as solvent system. Chemical detection was done with anisaldehyde (6).
(§1) Glycosphingolipid Binding Assays—Binding of ^35S-labeled bacteria to glycosphingolipids on thin-layer chromatograms was done as reported (7). Dried chromatograms were dipped for 1 min in diethylether/n-hexane (1:5, by volume) containing 0.5% (w/v) polyisobutylmethacrylate (Aldrich Chem. Comp. Inc., Milwaukee, Wis.). After drying, the chromatograms were soaked in PBS containing 2% bovine serum albumin (w/v), 0.1% NaN3 (w/v) and 0.1% Tween 20 (by volume) for 2 h at room temperature. The chromatograms were subsequentely covered with radiolabeled bacteria diluted in PBS (2-5×10^6 cpm/ml). Incubation was done for 2 h at room temperature, followed by repeated washings with PBS. The chromatograms were thereafter autoradiographed using XAR-5 X-ray films (Eastman Kodak, Rochester, N.Y.) for 12 h. Autoradiograms were replicated using a CCD camera (Dage-MTI, Inc., Michigan City, Ind.), and analysis of the images was performed using the public domain NIH Image program (developed at the U.S. National Institutes of Health, and available at http://rsb.info.nih.eov/nih-imaee/).
However, several wild type diarrheagenic E. coli strains bind to sialic acid (see e.g. FIG. 6 and FIG. 3). […]

[2] = tested on: EPEC strain; conditions: listed in decreasing order of activity; cited from earlier work
[3] = tested on: H. pylori CCUG 17874; assay: Binding of 35S-labeled Helicobacter species to glycosphingolipids on thin-layer chromatograms; set-up: species or system Helicobacter pylori; key: An significant darkening on the autoradiogram when 2 μg of the glycosphingolipid was applied on the thin-layer plate is denoted by +; − denotes no binding; conditions: 2 μg (40 μg for the glycosphingolipid fraction) on TLC plates
Text: (§2) Gastric species examined in the present study included, Helicobacter mustelae ferret isolates from the National Collection of Type Cultures (NCTC) and the Culture Collection of the University of Gothenberg (CCUG), NCTC 12198/CCUG 25175 (equivalent strains from different sources tested), CCUG 23950 and CCUG 23951, Helicobacterfelis CCUG 28539 from a cat, in addition, H. pylori strains CCUG 17874, CCUG 17875 and a clinical isolate 119/95 were used. Enterohepatic helicobacters of animal origin were purchased from the CCUG including, Helicobacter canes CCUG 33835, Helicobacter bilis CCUG 38995, Helicobacter hepaticus CCUG 33637, and Helicobacterfennelliae (CCUG 18820).
(§3) Binding of Helicobacter spp. to glycosphingolipids, both acid and non-acidfractions. Glycosphingolipids were isolated by standard procedures (Karlsson, 1987). The identity of the purified glycosphingolipids was confirmed by mass spectrometry (Samuelsson et al., 1990), proton NMR spectroscopy (Koerner et al., 1983) and degradation studies (Stellner et al., 1973; Yang and Hakomori, 1971).
(§4) Mixtures of glycosphingolipids (40 μg/lane) or pure compounds (2 μg/lane) were subsequently separated using thin-layer chromatography (TLC) on glass- or aluminum-backed silica gel 60 HPTLC plates (Merck, Darmstadt, Germany), with chloroform/methanot/water (60:35:8, by volume) as solvent system. Chemical detection was accomplished by anisaldehyde (Waldi, 1962). Helicobacter spp. were subjected to ^35S-labeling (Angstrom et al., 1998) and suspended in PBS (10^8 CFU/ml) with a specific activity of approximately 1 cpm per 100 organisms. Binding of the labeled-bacteria to glycosphingolipids separated by TLC was achieved using a bacterial-overlay technique coupled with autoradiography detection using XAR-5 X-ray films (Eastman Kodak, Rochester, N.Y.) as previously described (Hansson et al., 1985).

[4] = tested on: H. pylori CCUG 17875; assay: as above; set-up: species or system Helicobacter pylori; key: An significant darkening on the autoradiogram when 2 μg of the glycosphingolipid was applied on the thin-layer plate is denoted by +; − denotes no binding; conditions: 2 μg (40 μg for the glycosphingolipid fraction) on TLC plates
Text: as §2, §3, §4

[5] = tested on: H. felis CCUG 28539; assay: as above; set-up: species or system Helicobacter felis; key: An significant darkening on the autoradiogram when 2 μg of the glycosphingolipid was applied on the thin-layer plate is denoted by +; − denotes no binding; conditions: 2 μg (40 μg for the glycosphingolipid fraction) on TLC plates
Text: as §2, §3, §4

[6] = tested on: H. canis CCUG 33835; assay: as above; set-up: species or system Helicobacter canis; key: An significant darkening on the autoradiogram when 2 μg of the glycosphingolipid was applied on the thin-layer plate is denoted by +; − denotes no binding; conditions: 2 μg (40 μg for the glycosphingolipid fraction) on TLC plates
Text: as §2, §3, §4

[7] = tested on: H. hepaticus CCUG 33637; assay: as above; set-up: species or system Helicobacter hepaticus; key: An significant darkening on the autoradiogram when 2 μg of the glycosphingolipid was applied on the thin-layer plate is denoted by +; − denotes no binding; conditions: 2 μg (40 μg for the glycosphingolipid fraction) on TLC plates
Text: as §2, §3, §4

[8] = tested on: H. mustelae 25715; assay: as above; set-up: species or system Helicobacter mustelae; key: An significant darkening on the autoradiogram when 2 μg of the glycosphingolipid was applied on the thin-layer plate is denoted by +; − denotes no binding; conditions: 2 μg (40 μg for the glycosphingolipid fraction) on TLC plates
Text: as §2, §3, §4

[9] = tested on: H. mustelae CCUG 23950 & 23951; assay: as above; set-up: species or system Helicobacter mustelae; key: An significant darkening on the autoradiogram when 2 μg of the glycosphingolipid was applied on the thin-layer plate is denoted by +; − denotes no binding; conditions: 2 μg (40 μg for the glycosphingolipid fraction) on TLC plates
Text: as §2, §3, §4

[10] = tested on: H. bilis CCUG 38995; assay: as above; set-up: species or system Helicobacter bilis; key: An significant darkening on the autoradiogram when 2 μg of the glycosphingolipid was applied on the thin-layer plate is denoted by +; − denotes no binding; conditions: 2 μg (40 μg for the glycosphingolipid fraction) on TLC plates
Text: as §2, §3, §4

[11] = tested on: diarrheagenic E. coli; assay: Inhibition with soluble oligosaccharides in the chromatogram binding assay; set-up: species or system Escherichia coli
Experimental: as §1
The final concentrations of the inhibiting oligosaccharides on the TLC-plate were 0.3 mM. […] Thereafter the chromatogram binding assay was performed as described above.

[12] = tested on: shiga toxina and shigalike toxin; conditions: cited from earlier work
[13] = tested on: enteropathogenic wild type E. coli strain 37; assay: Inhibition with soluble oligosaccharides in the chromatogram binding assay; set-up: species or system Escherichia coli
Experimental: FIG. 5. […] Radiolabeled wild type E. coli strain 37 was incubated with a mixture of globotriaose (1.5 mM), neolactotetraose (1.5 mM) and 6′sialyllactose (1.5 mM) in PBS for 1 h at room temperature. Thereafter the suspensions were utilized in the chromatogram binding assay. (A) Binding of radiolabeled E. coli strain 37. (B) Binding of E. coli strain 37 incubated with a mixture of globotriaose, neolactotetraose and 6′sialyllactose. Lanes 1-4 were serial dilutions of globotriaosylceramide (Galα4Galβ4Glc β1Cer) and NeuGc-neolactohexaosylceramide (NeuGcα3Galβ4GlcNAcβ3Gaβ4GlcNacβ3Galβ4Glcβ1Cer). Lane 1, 2 μg of each compound, lane 2, 1 μg of each compound, lane 3, 0.5 μg of each compound, lane 4, 0.2 μg of each compound. Lanes 5-8 were serial dilutions of NeuGc-neolactotetraosylceramide (NeuGcα3Galβ4GlcNAcβ3Galβ4Glcβ1Cer). Lane 5, 2 μg of each compound, lane 6, 1 μg of each compound, lane 7, 0.5 μg of each compound, lane 8, 0.2 μg of each compound. The glycosphingolipids were separated on aluminium-packed silica gel plates, using chloroform/methanol/water (60:35:8, by volume) as solvent system, and the binding assay was performed as described under “Experimental procedures”. Autoradiography was for 12 h.
(C) Binding curves obtained after quantification of binding by densitometry. The autoradiograms in (A) and (B) were analyzed using the NIH Image program. […]

[14] = tested on: EPEC; conditions: 100 mM; cited from earlier work
[15] = tested on: Helicobacter pylori; conditions: cited from earlier work
[16] = tested on: Helicobacter pylori; conditions: in vivo; cited from earlier work
[17] = tested on: H. pylori CCUG 17875; assay: Binding of 35S-labeled Helicobacter species to glycosphingolipids on thin-layer chromatograms; set-up: species or system Helicobacter pylori
Text: as §2, §3
Mixtures of glycosphingolipids (40 μg/lane) or pure compounds (2 μg/lane) were subsequently separated using thin-layer chromatography (TLC) on glass- or aluminum-backed silica gel 60 HPTLC plates (Merck, Darmstadt, Germany), with chloroform/methanot/water (60:35:8, by volume) as solvent system. […]

[18] = tested on: H. pylori CCUG 17875; assay: as above; set-up: species or system Helicobacter pylori; key: + denotes a significant darkening on the autoradiogram when 2 μg (or 40 μg in the case of the last sample) was applied to TLC plates; − denotes no binding; conditions: 2 μg (40 μg for the glycosphingolipid fraction) on TLC plates
Text: as §2, §3, §4

GalNAcβ3Galα4Galβ4Glcβ1Cer [No. 12]
Binding of E. coli CCUG 38092 to pure glycosphingolipids after sub-culture [1]: remain | Binding of an EPEC strain to commercial glycolipids [2]: observed to bind | Binding of glycosphingolipids to H.pylori 17874 [3]: − | Binding of glycosphingolipids to H.pylori 17875 [4]: − | Binding of glycosphingolipids to H.felis 28539 [5]: − | Binding of glycosphingolipids to H.canis 33835 [6]: − | Binding of glycosphingolipids to H.hepaticus 33637 [7]: − | Binding of glycosphingolipids to H.mustelae 25715 [8]: − | Binding of glycosphingolipids to H.mustelae 23950 & 23951 [9]: − | Binding of glycosphingolipids to H.bilis 38995 [10]: −

OC[C@H]1O[C@H](O[C@@H]2[C@H](O)[C@@H](O)[C@H](O[C@H]3[C@H](O)[C@@H](O)C(O)O[C@@H]3CO)O[C@@H]2CO)[C@H](O)[C@@H](O)[C@H]1O (stereo partly shown) [globotriaose, Galα4Galβ4Glc]
Inhibition of non-toxigenic diarrhea causing E. coli by monovalent oligosaccharide ([11]; concentration of 0.3 mM): effect is seen | Inhibition of binding to globotriaosylceramide ([11]; preincubation 1.5 mM, final concentration 0.3 mM): Inhibition of binding | Inhibition of toxin with monovalent inhibitor [12]: Minor effects

Galβ3(Fucα4)GlcNAcβ3Galβ4Glcβ1Cer [No. 24]
Binding of glycosphingolipids to H.pylori 17874 [3]: − | Binding of glycosphingolipids to H.pylori 17875 [4]: − | Binding of glycosphingolipids to H.felis 28539 [5]: − | Binding of glycosphingolipids to H.canis 33835 [6]: − | Binding of glycosphingolipids to H.hepaticus 33637 [7]: − | Binding of glycosphingolipids to H.mustelae 25715 [8]: − | Binding of glycosphingolipids to H.mustelae 23950 & 23951 [9]: − | Binding of glycosphingolipids to H.bilis 38995 [10]: −

CC(=O)NC1C(O)CC(OCC2OC(OC3C(CO)OC(O)C(O)C3O)C(O)C(O)C2O)(C(=O)O)OC1C(O)C(O)CO (stereo not shown) [6′sialyllactose, NeuNAcα6Galβ4Glc]
Inhibition of binding to NeuGcα3-neolactotetraosylceramide [13]: inhibited

CC(=O)N[C@H]1C(O)O[C@H](CO)[C@H](O)[C@@H]1O (stereo partly shown) [N-acetylgalactosamine]
Inhibition of EPEC binding to HeLa cells [14]: inhibited

CC(=O)N[C@H]1[C@H]([C@H](O)[C@H](O)CO)O[C@@](O[C@H]2[C@@H](O)[C@@H](CO)O[C@@H](O[C@H]3[C@H](O)[C@@H](O)C(O)O[C@@H]3CO)[C@@H]2O)(C(=O)O)C[C@@H]1O (stereo partly shown) [sialyl-lactose]
Inhibition of Helicobacter pylori binding to human gastrointestinal cell lines [15]: inhibits | Efficacy in a rhesus monkey animal model of the infection [16]: effective

Fucα2Galβ3(Fucα4)GlcNAcβ3Galβ4Glcβ1Cer [No. 25]
Binding of H. pylori CCUG 17875 to glycosphingolipid, in words [17]: only observed for H. pylori CCUG 17875 | Binding of glycosphingolipids to H.pylori 17875 [18]: + | Binding of glycosphingolipids to H.pylori 17874 [3]: − | Binding of glycosphingolipids to H.felis 28539 [5]: − | Binding of glycosphingolipids to H.canis 33835 [6]: − | Binding of glycosphingolipids to H.hepaticus 33637 [7]: − | Binding of glycosphingolipids to H.mustelae 25715 [8]: − | Binding of glycosphingolipids to H.mustelae 23950 & 23951 [9]: − | Binding of glycosphingolipids to H.bilis 38995 [10]: −

— patent publication US20060014717A1, “Therapeutic compositions for use in prophylaxis or treatment of diarrheas” (priority 2002, published 2006)
